How the values were obtained:
[1] = system: A375 Human Melanoma cell line; assay: In vivo fluorescence imaging biodistribution in subcutaneous tumor mice; conditions: i.v. at day 14 post-tumor challenge; from 3 to 9-days after NCs injection
Method: A model of immunodepressed mice have been used to conduct this experiment. Female NSG mice (9 weeks old, Charles River) were challenged by subcutaneous (s.c). injection of A375 Human Melanoma cell line (1×10^6) cells on the right flank with a 23-gauge needle. Amphoteric ICG-NCs and cationic ICG-NCs were administered i.v. at day 14 post-tumor challenge. PBS and ICG free was injected to control groups. Fluorescence was monitoring by in vivo imaging system (IVIS; Perkin Elmer, Waltham, MA, USA) using excitation/emission wavelength of 780 nm/845 nm.

[2] = Acute toxicity analysis (haematological and biochemical parameters) after i.v. administration; set-up: species or system BALB/C mice; conditions: mouse, in vivo, iv
Method: Encapsulated non-loaded NCS nanocapsules (cationic and amphoteric nanocapsules) were i.v. administered to female BALB/C mice (8 weeks old; Charles River) at three different doses. Blood and serum samples were obtained at 24 h post-administration for acute toxicity analysis (SBCV and SHCV, Universidad Autónoma de Barcelona).
Haematological parameters analysed in blood included white blood cells (WBC) count, red blood cells (RBC) count, haemoglobin (HGB), red blood cell specific volume (HCT), mean corpuscular volume (MCV), mean corpuscular haemoglobin (MCH), mean corpuscular haemoglobin concentration (MCHC), platelet (PLT), lymphocytes (LYMPH), monocytes (MONO), neutrophils (NEU), eosinophils (EO), and basophils (BASO).
Biochemical parameters detected in serum included albumin, alanine aminotransferase (ALT), aspartate aminotransferase (AST), total bilirubin levels (TBIL), creatinine (CREA), gamma-glutamyl transferase (GGT), potassium, total proteins, sodium, and urea.
Encapsulated or free R848 was i.v. administered to female BALB/C mice (8 weeks old; Charles River) at three different doses. Blood and serum samples were obtained at 24 h post-administration for acute toxicity analysis (SBCV and SHCV, Universidad Autónoma de Barcelona).

| SMILES | fluorescence signal / accumulation in tumor locations [1] | biochemical parameters in serum with respect to untreated groups [2] | haematological parameters with respect to untreated groups [2] |
| --- | --- | --- | --- |
| CC1(C)C(/C=C/C=C/C=C/C=C2\N(CCCCS(=O)(=O)[O-])c3ccc4ccccc4c3C2(C)C)=[N+](CCCCS(=O)(=O)[O-])c2ccc3ccccc3c21.[Na+] [ICG, Indocyanine Green] | low |  |  |
| CCOCc1nc2c(N)nc3ccccc3c2n1CC(C)(C)O [Sample R848, Resiquimod] |  | No significant differences | No significant differences |

From patent US20240277617A1, “NANOTECHNOLOGICAL PLATFORM BASED ON POLYURETHANE/POLYUREA CHEMISTRY TO FURNISH WATER-OIL-WATER MULTI WALLED AND FUNCTIONALIZABLE NANOCAPSULES AND THEIR PREPARATION PROCESS” (ECOPOL TECH SL, priority 2021, published 2024)
